Assay results reported in ChEMBL document CHEMBL1201862, “PubChem BioAssay data set” (2004).
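Each compound was tested at five concentrations against cells in 96-well plates for 48 hours. GI50: concentration for 50% inhibition of growth.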 Active and inactive are the calls of the source. No stated cut-off is given here; in the data, active = GI50 up to about 1.1 µM and inactive = higher.

Tests used:
Experiment in all cases: NCI-60 cell line screen, 48 h
[1] = tested on: CCRF-CEM
[2] = tested on: ACHN
[3] = tested on: HCT-116
[4] = tested on: SK-MEL-28
[5] = tested on: CAKI-1
[6] = tested on: EKVX
[7] = tested on: NCI-H226
[8] = tested on: DMS-114
[9] = tested on: A498
[10] = tested on: HOP-92
[11] = tested on: SF-539
[12] = tested on: SK-MEL-5
[13] = tested on: NCI-H460
[14] = tested on: SNB-19
[15] = tested on: NCI-H23
[16] = tested on: HCT-15
[17] = tested on: HT-29
[18] = tested on: HCC 2998
[19] = tested on: SW-620
[20] = tested on: RPMI-8226
[21] = tested on: KM12
[22] = tested on: K562
[23] = tested on: Malme-3M
[24] = tested on: OVCAR-8
[25] = tested on: DLD-1
[26] = tested on: SN12C
[27] = tested on: A549
[28] = tested on: RXF 393
[29] = tested on: SF-295
[30] = tested on: U-251
[31] = tested on: LXFL 529
[32] = tested on: NCI-H522
[33] = tested on: SNB-78
[34] = tested on: OVCAR-5
[35] = tested on: MOLT-4
[36] = tested on: IGROV-1
[37] = tested on: UACC-257
[38] = tested on: UO-31
[39] = tested on: SK-MEL-2
[40] = tested on: COLO 205
[41] = tested on: UACC-62
[42] = tested on: M19-MEL
[43] = tested on: SK-OV-3
[44] = tested on: OVCAR-4
[45] = tested on: 786-0
[46] = tested on: SF-268
[47] = tested on: LOX IMVI
[48] = tested on: HL-60
[49] = tested on: KM-20L2
[50] = tested on: HOP-62
[51] = tested on: OVCAR-3
[52] = tested on: TK-10
[53] = tested on: M14
[54] = tested on: SR
[55] = tested on: SNB-75

Compound: COc1cc(/C=N/N=C(\N)NO)c(Cl)cc1O
- GI50 [1]: > 100 µM (inactive)
- GI50 [2]: 42.5 µM (inactive)
- GI50 [3]: 38.6 µM (inactive)
- GI50 [4]: 38.5 µM (inactive)
- GI50 [5]: 78 µM (inactive)
- GI50 [6]: 43.8 µM (inactive)
- GI50 [7]: 81.5 µM (inactive)
- GI50 [8]: 24.3 µM (inactive)
- GI50 [9]: 99.8 µM (inactive)
- GI50 [10]: 4.97 µM (inactive)
- GI50 [11]: 81.3 µM (inactive)
- GI50 [12]: 51.5 µM (inactive)
- GI50 [13]: > 10 µM (inactive)
- GI50 [14]: > 100 µM (inactive)
- GI50 [15]: 35.5 µM (inactive)
- GI50 [16]: 46.5 µM
- GI50 [17]: 44.5 µM (inactive)
- GI50 [18]: 61.5 µM (inactive)
- GI50 [19]: 77.8 µM (inactive)
- GI50 [20]: > 100 µM (inactive)
- GI50 [21]: 45.3 µM (inactive)
- GI50 [22]: 83.2 µM (inactive)
- GI50 [23]: 68.7 µM (inactive)
- GI50 [24]: 49.5 µM (inactive)
- GI50 [25]: > 10 µM (inactive)
- GI50 [26]: 58.2 µM (inactive)
- GI50 [27]: 38 µM (inactive)
- GI50 [28]: 81.5 µM (inactive)
- GI50 [29]: 96.2 µM (inactive)
- GI50 [30]: > 100 µM (inactive)
- GI50 [31]: > 100 µM (inactive)
- GI50 [32]: 31.4 µM (inactive)
- GI50 [33]: > 100 µM (inactive)
- GI50 [34]: 46.7 µM (inactive)
- GI50 [35]: > 100 µM (inactive)
- GI50 [36]: > 100 µM (inactive)
- GI50 [37]: > 100 µM (inactive)
- GI50 [38]: 94 µM (inactive)
- GI50 [39]: 71.6 µM (inactive)
- GI50 [40]: 38.2 µM (inactive)
- GI50 [41]: 47.1 µM (inactive)
- GI50 [42]: 26.6 µM (inactive)
- GI50 [43]: 85.9 µM (inactive)
- GI50 [44]: 43.8 µM (inactive)
- GI50 [45]: 46.6 µM (inactive)
- GI50 [46]: 85.1 µM (inactive)
- GI50 [47]: 32.7 µM (inactive)

Compound: C=CCC(C(=O)OC)C1(C(=O)OC)c2[nH]c3ccccc3c2CCN1Cc1ccccc1 (stereo not given)
- GI50 [1]: 29.8 µM (inactive)
- GI50 [48]: 18.2 µM (inactive)
- GI50 [3]: 69.5 µM (inactive)
- GI50 [4]: > 100 µM (inactive)
- GI50 [5]: 66.8 µM (inactive)
- GI50 [6]: > 100 µM (inactive)
- GI50 [8]: > 100 µM (inactive)
- GI50 [49]: > 100 µM (inactive)
- GI50 [9]: 54.6 µM (inactive)
- GI50 [10]: 23.4 µM (inactive)
- GI50 [11]: > 100 µM (inactive)
- GI50 [12]: 85.5 µM (inactive)
- GI50 [14]: > 100 µM (inactive)
- GI50 [50]: > 100 µM (inactive)
- GI50 [15]: > 100 µM (inactive)
- GI50 [51]: > 100 µM (inactive)
- GI50 [16]: > 100 µM
- GI50 [52]: > 100 µM (inactive)
- GI50 [17]: > 100 µM (inactive)
- GI50 [18]: > 100 µM (inactive)
- GI50 [19]: > 100 µM (inactive)
- GI50 [20]: > 100 µM (inactive)
- GI50 [21]: > 100 µM (inactive)
- GI50 [22]: > 10 µM (inactive)
- GI50 [53]: 82.4 µM (inactive)
- GI50 [23]: 51.8 µM (inactive)
- GI50 [24]: 83.6 µM (inactive)
- GI50 [25]: > 100 µM (inactive)
- GI50 [26]: > 100 µM (inactive)
- GI50 [27]: 58.9 µM (inactive)
- GI50 [28]: 33 µM (inactive)
- GI50 [29]: 35.1 µM (inactive)
- GI50 [30]: 64.4 µM (inactive)
- GI50 [32]: > 100 µM (inactive)
- GI50 [34]: > 100 µM (inactive)
- GI50 [35]: > 100 µM (inactive)
- GI50 [36]: > 100 µM (inactive)
- GI50 [38]: 53.3 µM (inactive)
- GI50 [39]: > 100 µM (inactive)
- GI50 [40]: > 100 µM (inactive)
- GI50 [41]: 74.6 µM (inactive)
- GI50 [42]: > 100 µM (inactive)
- GI50 [54]: 6.68 µM (inactive)
- GI50 [43]: 89.9 µM (inactive)
- GI50 [44]: 20.2 µM (inactive)
- GI50 [45]: 19 µM (inactive)
- GI50 [55]: > 100 µM (inactive)
- GI50 [46]: > 100 µM (inactive)
